{"source": "PubChem BioAssay AID2060493", "about": "(Molecular Pharmacology Branch, DTP, NCI, 2025)", "system": "616215-338-R-J1-PDC tumor spheroids, viability", "assay": "Anticancer human tumor 616215-338-R-J1-PDC patient-derived colon adenocarcinoma cell line growth inhibition [GQUAD]", "details": "spheroids with HUVEC and MSC; for viability, T/C: stronger effect = lower value", "from_the_text": "DNA G-quadruplex Stabilizer Agents in Combinations in Complex Spheroids\nA high-throughput screen of multi-cell type tumor spheroids was designed to identify active combinations of DNA G-quadruplex stabilizer agents and targeted small molecules. Complex spheroids include a stromal component modeled by human endothelial cells (HUVEC) and fibroblasts modeled by human mesenchymal stem cells (MSCs). The concentration ranges selected for each drug and investigational agent were based upon clinically achievable concentrations if the clinical Cmax of the agent was known.\nCompounds. The drugs and investigational agents: pidnarulex (CX-5461; NSC782164), APTO-253 (NSC789042), BRACO-19 (NSC847499), peposertib (NSC802822), ceralasertib (NSC780249), elimusertib (NSC800525), camonsertib (NSC841442), AZD-1390 (NSC803789), olaparib (NSC753686), talazoparib (NSC767125), ART-558 (NSC835418), sotorasib (NSC818433), MRTX-1133 (NSC836407), SN-38 (NSC673596), topotecan (NSC609699), etoposide (NSC141540), doxorubicin (NSC123127), gemcitabine (NSC613327), 5-fluorouracil (NSC19893), paclitaxel (NSC125973), vemurafenib (NSC761431), panobinostat (NSC761190), R-306465 (JNJ-16241199; NSC773264), adavosertib (NSC754352), TP-3654 (NSC805149), carboplatin (NSC241240), KSQ-4279 (NSC840948), and staurosporine (NSC755774) were obtained from the National Cancer Institute (NCI) Developmental Therapeutics Program Chemical Repository (34). The FDA-approved anticancer drug set is available from the NCI Developmental Therapeutics Program. […] The stock solutions were prepared in dimethyl sulfoxide (DMSO, Sigma-Aldrich, St. Louis, MO, cat. D2650) at 800-fold the tested concentration and stored at -70 degrees C prior to their use. All drugs and investigational agents were tested over a range starting from a high concentration at or near the clinical Cmax and decreasing in half-log increments. If the clinical Cmax for an agent had not been determined, the highest concentration tested was 10 microM.\n2.3 Cell Culture. All cells were maintained in an incubator at 37 degrees C and 5% CO2 with 95% humidity. The PDC lines were cultured according to standard operating procedures established by the NCI PDMR. All PDCs were thawed and cultured in Matrigel-coated flasks prepared with a working solution of 1X Ham's F-12 nutrient mix, without supplementation (Invitrogen, cat. 11765054), 100 U/mL penicillin-streptomycin (Invitrogen, cat. 15140122), and 2.5% Matrigel (Corning Inc., cat. 354248) for the first three passages. The 857933-349-R-J2-PDC line was cultured in 6C/Colon 1B media, which includes advanced DMEM/F-12 (Thermo Fisher Scientific, cat. 12634028), 10 mM HEPES (Thermo Fisher Scientific, cat. 15630080), 1X GlutaMAX supplement (Thermo Fisher Scientific, cat. 35050061), 0.1 mg/mL primocin (InvivoGen, cat. ant-pm-2), 10% defined fetal bovine serum, heat inactivated (HyClone Laboratories Inc., cat. SH30070.03HI), 50% L-WRN conditioned media (ATCC, cat. CRL-3276), 1.25 mM N-Acetyl-L-cysteine (Sigma-Aldrich, cat. A9165), 10 mM nicotinamide (Sigma-Aldrich, cat. N0636), 1X B-27 supplement (Thermo Fisher Scientific, cat. 17504044), 1X N-2 supplement (Thermo Fisher Scientific, cat. 17502048), 10 microM Y-27632 dihydrochloride (Tocris Bioscience, cat. 1254), and 50 ng/mL human EGF recombinant protein (Thermo Fisher Scientific, cat. PHG0311). The 485176-168-R4-J1-PDC line was cultured in Panc media, which includes all 6C/Colon 1B media components plus 100 ng/mL human FGF-10 (Thermo Fisher Scientific, cat. 100-26), 500 nM SB-431542 (Selleckchem, cat. S1067), and gastrin (Tocris, cat. 3006).\n[…]", "note": "Several values for one entry are separate records, joined by “and”; a condition that tells them apart may be missing. Equal entries are not always repeated.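 Also: spheroids exposed to agents for 7 days before readout.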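 For viability, T/C in this document: percent viability relative to DMSO vehicle control wells taken as 100%.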", "data": [{"smiles": "Cc1[nH]c2ccc(F)cc2c1-c1nc2c3cccnc3c3ncccc3c2[nH]1", "values": [{"measurement": "viability, T/C", "setting": "compound 0.0316 µM", "value": "105% [middle of 12 runs]"}, {"measurement": "viability, T/C", "setting": "compound 0.1 µM", "value": "104% [middle of 12 runs]"}, {"measurement": "viability, T/C", "setting": "compound 0.316 µM", "value": "99.5% [middle of 12 runs]"}, {"measurement": "viability, T/C", "setting": "compound 1 µM", "value": "100% [middle of 12 runs]"}, {"measurement": "viability, T/C", "setting": "compound 3.16 µM", "value": "91.3% [middle of 12 runs]"}, {"measurement": "viability, T/C", "setting": "compound 10 µM", "value": "98% [middle of 12 runs]"}, {"measurement": "IC50", "setting": "compound alone, run of 04/16/2024", "value": "> 10000", "unit": "nM"}, {"measurement": "IC50", "setting": "compound alone, run of 04/22/2024", "value": "> 10000", "unit": "nM"}]}, {"smiles": "CC(C)(O)C1CCC(Nc2ccc3ncc(-c4cccc(C(F)(F)F)c4)n3n2)CC1", "note": "(stereo unspecified) + Cc1cnc(CNC(=O)c2c(=O)c3ccc(N4CCCN(C)CC4)nc3n3c2sc2ccccc23)cn1", "values": [{"measurement": "IC50", "setting": "curve of first compound, second compound 0.0316 µM", "value": 571, "unit": "nM"}, {"measurement": "IC50", "setting": "curve of first compound, second compound 0.1 µM", "value": 352, "unit": "nM"}, {"measurement": "IC50", "setting": "curve of first compound, second compound 0.316 µM", "value": "< 31.6", "unit": "nM"}, {"measurement": "IC50", "setting": "curve of first compound, second compound 1 µM", "value": "< 31.6", "unit": "nM"}, {"measurement": "IC50", "setting": "curve of first compound, second compound 3.16 µM", "value": "< 31.6", "unit": "nM"}, {"measurement": "IC50", "setting": "curve of first compound, second compound 10 µM", "value": "< 31.6", "unit": "nM"}, {"measurement": "viability, T/C", "setting": "second compound 0.0316 µM, first compound 0.0316 µM", "value": 96.8, "unit": "%"}, {"measurement": "viability, T/C", "setting": "second compound 0.0316 µM, first compound 0.1 µM", "value": 86.9, "unit": "%"}, {"measurement": "viability, T/C", "setting": "second compound 0.0316 µM, first compound 0.316 µM", "value": 82.1, "unit": "%"}, {"measurement": "viability, T/C", "setting": "second compound 0.0316 µM, first compound 1 µM", "value": 19.8, "unit": "%"}, {"measurement": "viability, T/C", "setting": "second compound 0.0316 µM, first compound 3.16 µM", "value": 1.65, "unit": "%"}, {"measurement": "viability, T/C", "setting": "second compound 0.0316 µM, first compound 10 µM", "value": 2.16, "unit": "%"}, {"measurement": "viability, T/C", "setting": "second compound 0.1 µM, first compound 0.0316 µM", "value": 67.2, "unit": "%"}, {"measurement": "viability, T/C", "setting": "second compound 0.1 µM, first compound 0.1 µM", "value": 73.2, "unit": "%"}, {"measurement": "viability, T/C", "setting": "second compound 0.1 µM, first compound 0.316 µM", "value": 53.1, "unit": "%"}, {"measurement": "viability, T/C", "setting": "second compound 0.1 µM, first compound 1 µM", "value": 13.9, "unit": "%"}, {"measurement": "viability, T/C", "setting": "second compound 0.1 µM, first compound 3.16 µM", "value": 4.15, "unit": "%"}, {"measurement": "viability, T/C", "setting": "second compound 0.1 µM, first compound 10 µM", "value": 1.36, "unit": "%"}, {"measurement": "viability, T/C", "setting": "second compound 0.316 µM, first compound 0.0316 µM", "value": 36.8, "unit": "%"}, {"measurement": "viability, T/C", "setting": "second compound 0.316 µM, first compound 0.1 µM", "value": 50.2, "unit": "%"}, {"measurement": "viability, T/C", "setting": "second compound 0.316 µM, first compound 0.316 µM", "value": 37.3, "unit": "%"}, {"measurement": "viability, T/C", "setting": "second compound 0.316 µM, first compound 1 µM", "value": 14.8, "unit": "%"}, {"measurement": "viability, T/C", "setting": "second compound 0.316 µM, first compound 3.16 µM", "value": 0.03, "unit": "%"}, {"measurement": "viability, T/C", "setting": "second compound 0.316 µM, first compound 10 µM", "value": 2.26, "unit": "%"}, {"measurement": "viability, T/C", "setting": "second compound 1 µM, first compound 0.0316 µM", "value": 32.5, "unit": "%"}, {"measurement": "viability, T/C", "setting": "second compound 1 µM, first compound 0.1 µM", "value": 32.1, "unit": "%"}, {"measurement": "viability, T/C", "setting": "second compound 1 µM, first compound 0.316 µM", "value": 28.7, "unit": "%"}, {"measurement": "viability, T/C", "setting": "second compound 1 µM, first compound 1 µM", "value": 13.3, "unit": "%"}, {"measurement": "viability, T/C", "setting": "second compound 1 µM, first compound 3.16 µM", "value": 0.05, "unit": "%"}, {"measurement": "viability, T/C", "setting": "second compound 1 µM, first compound 10 µM", "value": 0.06, "unit": "%"}, {"measurement": "viability, T/C", "setting": "second compound 3.16 µM, first compound 0.0316 µM", "value": 20.9, "unit": "%"}, {"measurement": "viability, T/C", "setting": "second compound 3.16 µM, first compound 0.1 µM", "value": 24.2, "unit": "%"}, {"measurement": "viability, T/C", "setting": "second compound 3.16 µM, first compound 0.316 µM", "value": 29.9, "unit": "%"}, {"measurement": "viability, T/C", "setting": "second compound 3.16 µM, first compound 1 µM", "value": 3.87, "unit": "%"}, {"measurement": "viability, T/C", "setting": "second compound 3.16 µM, first compound 3.16 µM", "value": 0.1, "unit": "%"}, {"measurement": "viability, T/C", "setting": "second compound 3.16 µM, first compound 10 µM", "value": 0.12, "unit": "%"}, {"measurement": "viability, T/C", "setting": "second compound 10 µM, first compound 0.0316 µM", "value": 19.6, "unit": "%"}, {"measurement": "viability, T/C", "setting": "second compound 10 µM, first compound 0.1 µM", "value": 24.7, "unit": "%"}, {"measurement": "viability, T/C", "setting": "second compound 10 µM, first compound 0.316 µM", "value": 27.8, "unit": "%"}, {"measurement": "viability, T/C", "setting": "second compound 10 µM, first compound 1 µM", "value": 0.18, "unit": "%"}, {"measurement": "viability, T/C", "setting": "second compound 10 µM, first compound 3.16 µM", "value": 0.22, "unit": "%"}, {"measurement": "viability, T/C", "setting": "second compound 10 µM, first compound 10 µM", "value": 0.2, "unit": "%"}]}, {"smiles": "CC[C@@]1(O)C(=O)OCc2c1cc1n(c2=O)Cc2cc3c(CN(C)C)c(O)ccc3nc2-1", "values": [{"measurement": "viability, T/C", "setting": "compound 0.000999 µM", "value": "106% and 109% and 103%"}, {"measurement": "viability, T/C", "setting": "compound 0.00316 µM", "value": "93.6% and 97% and 92.9%"}, {"measurement": "viability, T/C", "setting": "compound 0.00999 µM", "value": "92.7% and 99.7% and 101%"}, {"measurement": "viability, T/C", "setting": "compound 0.0316 µM", "value": "92.8% and 96.2% and 101%"}, {"measurement": "viability, T/C", "setting": "compound 0.0999 µM", "value": "97.8% and 89% and 91.2%"}, {"measurement": "viability, T/C", "setting": "compound 0.316 µM", "value": "50.1% and 44.3% and 47.5%"}, {"measurement": "IC50", "setting": "curve of compound", "value": "> 316 nM and 273 nM and 297 nM"}]}, {"smiles": "CCc1c2c(nc3ccc(O)cc13)-c1cc3c(c(=O)n1C2)COC(=O)[C@]3(O)CC", "values": [{"measurement": "viability, T/C", "setting": "compound 0.000999 µM", "value": "93.6% and 102% (2×)"}, {"measurement": "viability, T/C", "setting": "compound 0.00316 µM", "value": "75.4% and 93.8% and 87.9%"}, {"measurement": "viability, T/C", "setting": "compound 0.00999 µM", "value": "63.3% and 61.1% and 66.4%"}, {"measurement": "viability, T/C", "setting": "compound 0.0316 µM", "value": "24.8% and 30.3% and 29.4%"}, {"measurement": "viability, T/C", "setting": "compound 0.0999 µM", "value": "22% and 16.5% and 16.2%"}, {"measurement": "viability, T/C", "setting": "compound 0.316 µM", "value": "14.9% and 9.21% and 12.4%"}, {"measurement": "IC50", "setting": "curve of compound", "value": "13.9 nM and 15.6 nM and 16.3 nM"}]}, {"smiles": "O=c1[nH]cc(F)c(=O)[nH]1", "values": [{"measurement": "viability, T/C", "setting": "compound 0.0316 µM", "value": "108% and 102% and 111%"}, {"measurement": "viability, T/C", "setting": "compound 0.1 µM", "value": "94.5% and 99.6% and 87%"}, {"measurement": "viability, T/C", "setting": "compound 0.316 µM", "value": "68.3% and 78.9% and 59.7%"}, {"measurement": "viability, T/C", "setting": "compound 1 µM", "value": "40.8% and 52.1% and 38%"}, {"measurement": "viability, T/C", "setting": "compound 3.16 µM", "value": "39.3% and 43.9% and 33.4%"}, {"measurement": "viability, T/C", "setting": "compound 10 µM", "value": "38.3% and 41.7% and 35.4%"}, {"measurement": "IC50", "setting": "curve of compound", "value": "729 nM and 1280 nM and 523 nM"}]}]}
